PubChem BioAssay AID2423 (Broad Institute, 2010)
Inconclusive results are not listed. Calls of active or inactive are those of the source. How the calls were made is not given here.

Test system: C. albicans CaCi-8 + fluconazole, Alamar Blue growth, 48 h
Assay: resistant C. albicans growth inhibition with fluconazole, dose response, CaCi-8 strain, Alamar Blue fluorescence (AID 2423)

SMILES | EC50
O=C(NC1CCCCC1)C(c1ccc2ncccc2c1)N(Cc1ccc(F)cc1)C(=O)c1ccc2c(c1)OCCO2 (stereo not given) | > 15000 nM (inactive)
CCc1cc(C(=O)NNC(=S)Nc2cc(C)ccc2C)cs1 | 422 nM
CC(C)(C)C(=O)NC(=S)NNC(=O)C(c1ccccc1)c1ccccc1 | 2160 nM
Cc1ccc(NC(=O)NNC(=O)c2cc3ccccc3cc2O)cc1C | > 16000 nM (inactive)
COc1ccc(-c2nn(-c3ccccc3)cc2/C=N/NC(=S)NC(C)C)cc1OC | 1890 nM
C/C(=N/NC(=O)c1cc(O)c(O)c(O)c1)c1ccc([N+](=O)[O-])cc1 | 4810 nM
Brc1ccc(N/N=C(/N=Nc2nn[nH]n2)c2ccccc2)cc1 | 5600 nM
CCNC(=S)NNC(=O)c1cc(-c2ccccc2C)nc2ccccc12 | 1410 nM
CC(C)C(=O)NC(c1ccco1)c1ccc2cccnc2c1O (stereo not given) | 1940 nM
COCC(=O)Nc1nc2n(n1)C(c1ccccc1Cl)CC(c1ccc(OC)cc1)N2 (stereo not given) | > 16000 nM (inactive)
COc1cc(OC)cc(N(C(=O)C2COc3ccccc3O2)C(C(=O)NC2CCCCC2)c2ccc(O)cc2)c1 (stereo not given) | > 16000 nM (inactive)
Cc1cc(C)c(-c2cc(NC(=O)COC(=O)c3ccc(C#N)cc3)n(-c3ccccc3)n2)cc1C | 397 nM
CC(C)CCNC(=O)C(c1ccco1)N(Cc1ccc(F)cc1)C(=O)c1snc(C(N)=O)c1N (stereo not given) | 15800 nM
Cc1nc(NC(=O)c2c(-c3ccccc3)noc2C)sc1C(=O)N(C)C | 16300 nM
CC1=C(C(N)=O)C(c2ccc(C)o2)C(C(N)=O)=C(C)N1 | > 16000 nM (inactive)
COc1ccc(-c2cc(C3CCN(Cc4cccc(C(F)(F)F)c4)CC3)[nH]n2)cc1 | 8130 nM
CC(=O)Nc1cccc(NC(=O)C2CCCN2C(=O)Nc2ccc(Cl)cc2)c1 (stereo not given) | > 16000 nM (inactive)
O=C1NC(=O)/C(=C\c2ccc(Br)o2)S1 | 1720 nM
COc1ccc(-n2c(-c3ccc(Br)cc3)c[n+]3c2SC(C)C3)cc1 (stereo not given) | 6770 nM
Cc1nc(NS(=O)(=O)c2ccc(Br)cc2)c2c3c(sc2n1)CCC3 | > 16000 nM (inactive)
CCOC(=O)CC(/C(C)=N\O)c1ccccc1 (stereo not given) | > 16000 nM (inactive)
CS/C(=N\S(=O)(=O)c1cccs1)Nc1ccc(Br)cc1F | 801 nM
COCCN(C(=O)CSc1nnc(-c2cccc(C)c2)n1C)c1c(N)n(Cc2ccccc2)c(=O)[nH]c1=O | > 16000 nM (inactive)
O=C(N/N=C/c1c(O)ccc2ccccc12)c1cccnc1 | 1430 nM
Cc1c(Cc2ccccc2)c(=O)oc2c(O)c(O)ccc12 | 2750 nM
COC(=O)c1c(C)n(-c2ccccc2)c2ccc(O)cc12 | 3160 nM
Cc1c(Nc2scc(-c3ccccc3)[n+]2-c2ccccc2)c(=O)n(-c2ccccc2)n1C | 225 nM
O=C(/C=C/c1cccs1)NC(=S)NNC(=O)c1ccccc1O | 8540 nM

SMILES | EC50
O=C(CCS(=O)(=O)c1ccccc1)Nc1ncc([N+](=O)[O-])s1 | > 15000 nM (inactive)
C/C(=N\NC(=O)c1cccc(N/N=C(\C)c2cc(O)ccc2O)c1)c1cc(O)ccc1O | > 15000 nM (inactive)
O=C(c1ccccc1)C(CN1CCCC1)c1ccccc1 (stereo not given) | > 16000 nM (inactive)
COc1ccc(CCn2c(C)cc3c(c2=O)C(c2ccc4c(c2)OCO4)C(C#N)=C(N)O3)cc1OC (stereo not given) | > 16000 nM (inactive)
N#C/C(=C(/O)COc1ccc(Cl)cc1)c1nc2ccccc2s1 | > 15000 nM (inactive)
COc1ccccc1-n1c(C)cc(SC)c(C(C)=O)c1=S | > 15000 nM (inactive)
O=C(N/N=C/c1ccc(O)c2ncccc12)c1cccc(Br)c1 | 1200 nM
O=C(NNC(=O)c1cc2ccccc2cc1O)NC1CCCCC1 | 13600 nM
CNC(=S)/N=C/NOCc1ccc(Cl)cc1Cl | 460 nM
O=C(N/N=C/c1sc(N2CCOCC2)nc1-c1ccccc1)c1cccc(S(=O)(=O)N2CCOCC2)c1 | 1150 nM
CS/C(=N\S(=O)(=O)c1cccs1)Nc1ccc(Cl)cc1 | 1200 nM
O=C(NCc1ccco1)c1sc(=S)n2c1[nH]c(=O)c1ccccc12 | 212 nM
CCN(CC)c1ccc(/C=N/Nc2nc3ccccc3[nH]2)c(O)c1 | 621 nM
O=C(/C=C/c1ccco1)Oc1cc(Br)cc(/C=N/NC(=O)c2ccccc2O)c1 | 3320 nM
Clc1ccccc1-c1nc2ccccc2c2nc3ccccc3n12 | 204 nM
CC(=O)N1CCN(c2ccc(NC(=O)c3ccc(C(C)(C)C)cc3)cc2)CC1 | 11900 nM
CCN(CC)S(=O)(=O)c1ccc(N/N=C/c2ccc(O)cc2O)nc1 | 644 nM
COc1ccc(-c2nnc(Nc3nc4c(OC)cccc4s3)o2)c(OC)c1 | 2710 nM
O=C(NNC(=O)c1ccc2ccccc2c1O)c1ccccc1Cl | 6110 nM
O=C(NNC(=O)c1ccccc1O)c1ccc(-c2ccc([N+](=O)[O-])cc2)o1 | > 15000 nM (inactive)
CC(CC(=O)Nc1ncc([N+](=O)[O-])s1)c1ccccc1 (stereo not given) | 322 nM
NC(=O)c1c(NC(=O)c2ccccc2F)sc2c1CCCC2 | 2010 nM
CCOC(=O)c1ccc(NC(=O)c2ccc(CO)c(C(=O)NC3CCN(C(=O)OCC)CC3)c2)cc1 | > 16000 nM (inactive)
CC1CCC(C(=O)c2c(O)c3ccccc3oc2=O)CC1 (stereo not given) | 2900 nM
CC(C)(C)C(=O)NC(=S)NNC(=O)c1ccc(-c2ccccc2)cc1 | < 120 nM
O=C(NC(=S)NNC(=O)c1cnccn1)c1ccc(Cl)cc1 | 3420 nM
CCC(=O)NC(c1ccc(OC)cc1)c1cc(Cl)c2cccnc2c1O (stereo not given) | 976 nM
